In US20120053165A1, “Novel Phenyl Imidazoles and Phenyl Triazoles As Gamma-Secretase Modulators” (Pfizer Inc., priority 2009, published 2012):
Like-named read-outs stand apart in the source and are kept apart here.

Test system: production of amyloid beta protein Aβ(1-42) in human WT-APP overexpressing CHO cells
[1] = Homo sapiens, CHO, read-out: Aβ 42 IC50, Geometric mean of 2-8 determinations, human WT-APP overexpressing CHO cells
[2] = read-out: Aβ 42 IC50, Geometric mean of 2-8 determinations, human WT-APP overexpressing CHO cells
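Also: Aβ(1-42) released into conditioned medium captured by ELISA after roughly 24 h compound exposure, vehicle and inhibitor controls defining maximal and minimal inhibition.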

Protocol: Cell-Based γ-Secretase Assay with ELISA Readout
The ability of compounds to modulate production of amyloid beta protein Aβ(1-42) was determined using human WT-APP overexpressing CHO cells. Cells were plated at 22,000 cells/100 μL well in 96 well tissue culture treated, clear plates (Falcon) in DMEM/F12 based medium and incubated for 24 hours at 37° C. […] Compounds were added in fresh medium to achieve 1% final DMSO. Appropriate vehicle and inhibitor controls were added to obtain maximum and minimum inhibition values for the assay before the plates were incubated for about 24 hours at 37° C.
Coating of ELISA assay plates was initiated by addition of 50 μL/well of an in house Aβ(1-42) specific antibody at (4 μg/mL) in 0.1 M NaHCO3 (pH 9.0) into black 384-well Maxisorp® plates (Nunc) and incubated overnight at 4° C. […] Ambient temperature incubation was allowed to proceed for a minimum of two hours before washing 2×100 μL with Wash Buffer (Dulbecco's PBS, 0.05% Tween 20). Assay Buffer (Dulbecco's PBS, 1.0% BSA (Sigma A7030), 0.05% Tween 20) 20 μL/well is then added.
After incubation overnight at 37° C., 5% CO2, 40 μL (in duplicate) of experimental conditioned media are transferred into wells of the blocked ELISA plates containing the capture antibody, followed by overnight incubation at 4° C.
After overnight incubation of the ELISA assay plates at 4° C., unbound Aβ peptides were removed thorough (4×100 μL) washes with Wash Buffer.

| Structure (SMILES) | IC50 [1] [nM] | IC50 [2] [nM] | other results |
| --- | --- | --- | --- |
| COc1cc(C(=O)NCc2ccc(F)cc2Cl)ccc1-n1cnc(C)c1 [Example 76, N-(2-chloro-4-fluorobenzyl)-3-methoxy-4-(4-methyl-1H-imidazol-1-yl)benzamide] | 476 | – | – |
| COc1cc(C(=O)NCc2cccc(C(F)(F)F)c2F)ccc1-n1cnc(C)c1 [Example 77, N-[2-fluoro-3-(trifluoromethyl)benzyl]-3-methoxy-4-(4-methyl-1H-imidazol-1-yl) benzamide] | – | 481 | – |
| COc1cc(C(=O)NC2(c3ccc(Cl)cc3)CC2)ccc1-n1cnc(C)c1 [Example 78, N-[1-(4-chlorophenyl)cyclopropyl]-3-methoxy-4-(4-methyl-1H-imidazol-1-yl) benzamide] | – | 488 | – |
| COc1cc(C(=O)NCCc2ccccc2Cl)ccc1-n1cnc(C)c1 [Example 79, N-[2-(2-chlorophenyl)ethyl]-3-methoxy-4-(4-methyl-1H-imidazol-1-yl)benzamide] | – | – | IC50 (Homo sapiens, CHO, read-out: Aβ 42 IC50): 495 nM |
| COc1cc(C(=O)N[C@H](c2ccccc2)[C@@H](O)c2ccccc2)ccc1-n1cnc(C)c1 [Example 80, N-[(1R,2S)-2-hydroxy-1,2-diphenylethyl]-3-methoxy-4-(4-methyl-1H-imidazol-1-yl) benzamide] | – | 501 | – |
| COc1cc(C(=O)NCCCc2ccc(F)cc2)ccc1-n1cnc(C)c1 [Example 81, N-[3-(4-fluorophenyl)propyl]-3-methoxy-4-(4-methyl-1H-imidazol-1-yl)benzamide] | 504 | – | – |
| COc1cc(C(=O)NCc2cc(C)ccc2C)ccc1-n1cnc(C)c1 [Example 82, N-(2,5-dimethylbenzyl)-3-methoxy-4-(4-methyl-1H-imidazol-1-yl) benzamide] | – | 513 | – |
| COc1cc(C(=O)NCc2ccc(C(F)(F)F)c(F)c2)ccc1-n1cnc(C)c1 [Example 83, N-[3-fluoro-4-(trifluoromethyl)benzyl]-3-methoxy-4-(4-methyl-1H-imidazol-1-yl) benzamide] | – | 514 | – |
| COc1cc(C(=O)NCc2cccc(Cl)c2)ccc1-n1cnc(C)c1 [Example 84, N-(3-chlorobenzyl)-3-methoxy-4-(4-methyl-1H-imidazol-1-yl) benzamide] | – | 520 | – |
| COc1cc(C(=O)N2CCCC(Oc3ccccc3C(C)C)C2)ccc1-n1cnc(C)c1 (stereo not shown) [Example 85, 3-(2-isopropylphenoxy)-1-[3-methoxy-4-(4-methyl-1H-imidazol-1-yl)benzoyl]piperidine] | 533 | – | – |
| COc1cc(C(=O)NCc2nc3cc(Cl)c(C)cc3o2)ccc1-n1cnc(C)c1 [Example 86, N-[(5-chloro-6-methyl-1,3-benzoxazol-2-yl)methyl]-3-methoxy-4-(4-methyl-1H-imidazol-1-yl)benzamide] | 544 | – | – |
| COc1cc(C(=O)NCc2cc3ccccc3s2)ccc1-n1cnc(C)c1 [Example 87, N-(1-benzothien-2-ylmethyl)-3-methoxy-4-(4-methyl-1H-imidazol-1-yl) benzamide] | – | 560 | – |
| COc1cc(C(=O)NC(C)Cc2ccc(C(F)(F)F)cc2)ccc1-n1cnc(C)c1 (stereo not shown) [Example 88, 3-methoxy-4-(4-methyl-1H-imidazol-1-yl)-N-{1-methyl-2-[4-(trifluoromethyl)phenyl]ethyl} benzamide] | – | 561 | – |
| COc1cc(C(=O)NCc2cc3cc(F)ccc3[nH]2)ccc1-n1cnc(C)c1 [Example 89, N-[(5-fluoro-1H-indol-2-yl)methyl]-3-methoxy-4-(4-methyl-1H-imidazol-1-yl)benzamide] | 570 | – | – |
| COc1cc(C(=O)NCCOc2ccccc2Cl)ccc1-n1cnc(C)c1 [Example 90, N-[2-(2-chlorophenoxy)ethyl]-3-methoxy-4-(4-methyl-1H-imidazol-1-yl) benzamide] | – | 573 | – |
| COc1cc(C(=O)N2CCC(Oc3ccccc3C(F)(F)F)CC2)ccc1-n1cnc(C)c1 [Example 91, 1-[3-methoxy-4-(4-methyl-1H-imidazol-1-yl)benzoyl]-4-[2-(trifluoromethyl)phenoxy]piperidine] | 588 | – | – |
